According to ChEMBL document CHEMBL1201862, “PubChem BioAssay data set” (2004):
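Each compound was tested at five concentrations against cells in 96-well plates for 48 hours. GI50 = concentration required for 50% inhibition of growth.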 Calls of active or inactive are those of the source. Rule as the data show it: active = GI50 up to about 1.1 µM and inactive = higher.

Experiments:
Experiment in all cases: inhibition of tumour cell growth, NCI panel, 48 h
[1] = system: 786-0
[2] = system: A498
[3] = system: ACHN
[4] = system: HCT-116
[5] = system: IGROV-1
[6] = system: KM12
[7] = system: MDA-MB-231
[8] = system: MDA-N
[9] = system: NCI-H522
[10] = system: OVCAR-3
[11] = system: OVCAR-4
[12] = system: PC-3
[13] = system: RPMI-8226
[14] = system: SK-MEL-28
[15] = system: SK-OV-3
[16] = system: SN12C
[17] = system: SNB-19
[18] = system: SNB-75
[19] = system: TK-10
[20] = system: U-251

SMILES	GI50 [1]	GI50 [2]	GI50 [3]	GI50 [4]	GI50 [5]	GI50 [6]	GI50 [7]	GI50 [8]	GI50 [9]	GI50 [10]	GI50 [11]	GI50 [12]	GI50 [13]	GI50 [14]	GI50 [15]	GI50 [16]	GI50 [17]	GI50 [18]	GI50 [19]	GI50 [20]
N=C(N)SCc1ccc(Cl)cc1Cl.O=[N+]([O-])c1c(O)c(Cl)cc(Cl)c1Cl	11.7 µM (inactive)	13.3 µM (inactive)	10.7 µM (inactive)	11.8 µM (inactive)	17.8 µM (inactive)	13.7 µM (inactive)	10.7 µM (inactive)	7.46 µM (inactive)	10.3 µM (inactive)	13.1 µM (inactive)	12 µM (inactive)	11.9 µM (inactive)	1.81 µM (inactive)	28.9 µM (inactive)	17.3 µM (inactive)	11.9 µM (inactive)	19.4 µM (inactive)	15.1 µM (inactive)	6.18 µM (inactive)	14.8 µM (inactive)
O=C(O)CC1(C(=O)O)CCCCC1	> 100 µM (inactive)	> 100 µM (inactive)	> 100 µM (inactive)	> 100 µM (inactive)	> 100 µM (inactive)	> 100 µM (inactive)	> 100 µM (inactive)	> 100 µM (inactive)	> 100 µM (inactive)	> 100 µM (inactive)	> 100 µM (inactive)	> 100 µM (inactive)	> 100 µM (inactive)	> 100 µM (inactive)	> 100 µM (inactive)	> 100 µM (inactive)	> 100 µM (inactive)	> 100 µM (inactive)	> 100 µM (inactive)	> 100 µM (inactive)
O=C1CC(=O)NC(NNS(=O)(=O)c2ccc(Cl)cc2)=N1	> 100 µM (inactive)	> 100 µM (inactive)	> 100 µM (inactive)	> 100 µM (inactive)	> 100 µM (inactive)	> 100 µM (inactive)	> 100 µM (inactive)	> 100 µM (inactive)	> 100 µM (inactive)	> 100 µM (inactive)	> 100 µM (inactive)	> 100 µM (inactive)	> 100 µM (inactive)	> 100 µM (inactive)	58.5 µM (inactive)	> 100 µM (inactive)	> 100 µM (inactive)	> 100 µM (inactive)	> 100 µM (inactive)	> 100 µM (inactive)
CCCCN(CCCC)CCC(O)c1cc2c(Cl)cc(Cl)cc2c2cc(C(F)(F)F)ccc12 (stereo not given)	12.9 µM (inactive)	3.59 µM (inactive)	12 µM (inactive)	12.2 µM (inactive)	12.7 µM (inactive)	–	2.52 µM (inactive)	12.7 µM (inactive)	17.5 µM (inactive)	11.6 µM (inactive)	4.78 µM (inactive)	10.1 µM (inactive)	8.36 µM (inactive)	16.7 µM (inactive)	14 µM (inactive)	5.05 µM (inactive)	19.1 µM (inactive)	11.7 µM (inactive)	13.4 µM (inactive)	14.4 µM (inactive)
C/C(=N\NC(=S)Nc1ccc(C)cc1)c1nc2cccnc2[nH]1	1.6 µM (inactive)	7.71 µM (inactive)	1.44 µM (inactive)	1.6 µM (inactive)	2.31 µM (inactive)	7.6 µM (inactive)	1.17 µM (inactive)	4.63 µM (inactive)	0.986 µM (active)	0.483 µM (active)	0.25 µM (active)	1.73 µM (inactive)	3.01 µM (inactive)	2.86 µM (inactive)	4.3 µM (inactive)	2.32 µM (inactive)	3.2 µM (inactive)	5.77 µM (inactive)	2.67 µM (inactive)	1.45 µM (inactive)
COc1ccc(OC)c2c1C(=O)C(O)=C(Cl)C2=O	> 100 µM (inactive)	> 100 µM (inactive)	> 100 µM (inactive)	> 100 µM (inactive)	> 100 µM (inactive)	> 100 µM (inactive)	> 100 µM (inactive)	> 100 µM (inactive)	> 100 µM (inactive)	> 100 µM (inactive)	> 100 µM (inactive)	> 100 µM (inactive)	> 100 µM (inactive)	> 100 µM (inactive)	> 100 µM (inactive)	–	> 100 µM (inactive)	> 100 µM (inactive)	> 100 µM (inactive)	> 100 µM (inactive)
CN(C)CCCNC(=O)CCNC(=O)c1cc(NC(=O)c2cc(NC(=O)c3cc(NC(=O)c4nccn4C)cn3C)cn2C)cn1C	> 100 µM (inactive)	> 100 µM (inactive)	> 100 µM (inactive)	> 100 µM (inactive)	> 100 µM (inactive)	> 100 µM (inactive)	> 100 µM (inactive)	> 100 µM (inactive)	5.47 µM (inactive)	> 78.2 µM (inactive)	–	> 100 µM (inactive)	> 100 µM (inactive)	> 100 µM (inactive)	> 100 µM (inactive)	> 100 µM (inactive)	29.6 µM (inactive)	54.7 µM (inactive)	> 100 µM (inactive)	13.4 µM (inactive)
CC1(C)CC2=C(Sc3ccccc3N2)C(=O)C1C(=O)C(=O)Nc1cccc([N+](=O)[O-])c1 (stereo not given)	> 100 µM (inactive)	> 100 µM (inactive)	> 100 µM (inactive)	> 100 µM (inactive)	> 100 µM (inactive)	44 µM (inactive)	99.3 µM (inactive)	> 100 µM (inactive)	> 100 µM (inactive)	85.5 µM (inactive)	82.4 µM (inactive)	75.9 µM (inactive)	64.6 µM (inactive)	> 100 µM (inactive)	> 100 µM (inactive)	> 100 µM (inactive)	> 100 µM (inactive)	> 100 µM (inactive)	> 100 µM (inactive)	> 100 µM (inactive)
Cc1cc(C)nc(NC(=S)Nc2ccc(Cl)cc2)c1	22.5 µM (inactive)	48.3 µM (inactive)	–	> 100 µM (inactive)	65.8 µM (inactive)	53.6 µM (inactive)	74.8 µM (inactive)	> 100 µM (inactive)	1.37 µM (inactive)	> 100 µM (inactive)	18.4 µM (inactive)	> 100 µM (inactive)	> 100 µM (inactive)	> 100 µM (inactive)	23.4 µM (inactive)	> 100 µM (inactive)	> 100 µM (inactive)	11.9 µM (inactive)	33.7 µM (inactive)	35.9 µM (inactive)
Clc1ccccc1/C=C/c1ccnc2ccccc12	15.8 µM (inactive)	18.8 µM (inactive)	16.5 µM (inactive)	15.7 µM (inactive)	15.8 µM (inactive)	17.4 µM (inactive)	22.9 µM (inactive)	14.6 µM (inactive)	14.3 µM (inactive)	14.5 µM (inactive)	16.1 µM (inactive)	16.4 µM (inactive)	7.8 µM (inactive)	19.6 µM (inactive)	18.5 µM (inactive)	16.4 µM (inactive)	16.8 µM (inactive)	15.6 µM (inactive)	18 µM (inactive)	16.8 µM (inactive)
C(#CP(c1ccccc1)c1ccccc1)P(C#CP(c1ccccc1)c1ccccc1)c1ccccc1	> 100 µM (inactive)	> 100 µM (inactive)	> 100 µM (inactive)	> 100 µM (inactive)	> 100 µM (inactive)	> 100 µM (inactive)	> 100 µM (inactive)	> 100 µM (inactive)	> 100 µM (inactive)	> 100 µM (inactive)	> 100 µM (inactive)	> 100 µM (inactive)	> 100 µM (inactive)	> 100 µM (inactive)	2.77 µM (inactive)	> 100 µM (inactive)	> 100 µM (inactive)	> 100 µM (inactive)	> 100 µM (inactive)	> 100 µM (inactive)
O=C1CCCCC(=O)OC2(CCCCC2=O)CC1 (stereo not given)	> 100 µM (inactive)	> 100 µM (inactive)	> 100 µM (inactive)	> 100 µM (inactive)	> 100 µM (inactive)	> 100 µM (inactive)	> 100 µM (inactive)	> 100 µM (inactive)	> 100 µM (inactive)	> 100 µM (inactive)	> 100 µM (inactive)	> 100 µM (inactive)	> 100 µM (inactive)	> 100 µM (inactive)	> 100 µM (inactive)	> 100 µM (inactive)	–	5.82 µM (inactive)	> 100 µM (inactive)	> 100 µM (inactive)
Nc1ncnc2c1ccn2COC(CO)CO	> 100 µM (inactive)	> 100 µM (inactive)	> 100 µM (inactive)	> 100 µM (inactive)	> 100 µM (inactive)	> 100 µM (inactive)	> 100 µM (inactive)	> 100 µM (inactive)	54.7 µM (inactive)	> 100 µM (inactive)	> 100 µM (inactive)	> 100 µM (inactive)	97.1 µM (inactive)	> 100 µM (inactive)	> 100 µM (inactive)	> 100 µM (inactive)	> 100 µM (inactive)	> 100 µM (inactive)	> 100 µM (inactive)	> 100 µM (inactive)
CN(C)CCn1c(=O)c2ccc3c4c(nn3CCN(C)C)c3cc(N)ccc3n(c1=O)c24	< 0.01 µM (active)	0.061 µM (active)	< 0.0161 µM (active)	< 0.0145 µM (active)	< 0.015 µM (active)	< 0.0196 µM (active)	< 0.0313 µM (active)	< 0.0239 µM (active)	0.02 µM (active)	< 0.0151 µM (active)	0.0165 µM (active)	< 0.0153 µM (active)	< 0.01 µM (active)	0.0646 µM (active)	< 0.0211 µM (active)	< 0.0199 µM (active)	< 0.0111 µM (active)	< 0.01 µM (active)	0.0513 µM (active)	< 0.0111 µM (active)
